Laboratory results from patent US8927563B2, “Kinase inhibitor” (Respivert Limited, priority 2013, dated 2015).

Legend:
B-Raf (V600E) = B-Raf (V600E) (Homo sapiens (Human), UniProt P15056, V600E); test: KINOMEscan binding of B-Raf (V600E) to standard ligand
Procedure: Kinase enzyme binding activities of compounds disclosed herein may be determined using a proprietary assay which measures active site-directed competition binding to an immobilized ligand (Fabian, M. A. et al., Nature Biotechnol., 2005, 23:329-336). These assays may be conducted by DiscoverX (formerly Ambit; San Diego, Calif.). The percentage inhibition produced by incubation with a test compound may be calculated relative to the non-inhibited control.

[1] = Plasma pharmacokinetics and total colon distribution after oral administration to mice; type: in vivo; conditions: male, C57BL/6, mouse, total colon, oral 5 mg/kg, vehicle B, read-out: Median total colon concentration
Procedure: Studies were conducted by Sai Life Sciences (Hinjewadi, Pune, India) to investigate the plasma pharmacokinetics and total colon tissue distribution of Compound I. In particular, pharmacokinetic studies were carried out in: • male C57BL/6 mice, following a single oral administration; and • male Wistar rats following a single intravenous or oral administration.

[2] = Human hepatocyte stability test; type: in vitro ADME; conditions: human hepatocytes
Procedure: (§1) Assessment of certain in vitro ADME (absorption, distribution, metabolism, and excretion) parameters for Compound I was conducted by BioFocus (Saffron Walden, UK). The results reveal that Compound I is cleared rapidly by human hepatocytes and that it has a reduced liability for time-dependent cytochrome P450 inhibition.

human hepatocytes = test: Human hepatocyte stability test; type: in vitro ADME
Procedure: as §1

B-Raf (V600E), sequence (P15056 whole entry V600E): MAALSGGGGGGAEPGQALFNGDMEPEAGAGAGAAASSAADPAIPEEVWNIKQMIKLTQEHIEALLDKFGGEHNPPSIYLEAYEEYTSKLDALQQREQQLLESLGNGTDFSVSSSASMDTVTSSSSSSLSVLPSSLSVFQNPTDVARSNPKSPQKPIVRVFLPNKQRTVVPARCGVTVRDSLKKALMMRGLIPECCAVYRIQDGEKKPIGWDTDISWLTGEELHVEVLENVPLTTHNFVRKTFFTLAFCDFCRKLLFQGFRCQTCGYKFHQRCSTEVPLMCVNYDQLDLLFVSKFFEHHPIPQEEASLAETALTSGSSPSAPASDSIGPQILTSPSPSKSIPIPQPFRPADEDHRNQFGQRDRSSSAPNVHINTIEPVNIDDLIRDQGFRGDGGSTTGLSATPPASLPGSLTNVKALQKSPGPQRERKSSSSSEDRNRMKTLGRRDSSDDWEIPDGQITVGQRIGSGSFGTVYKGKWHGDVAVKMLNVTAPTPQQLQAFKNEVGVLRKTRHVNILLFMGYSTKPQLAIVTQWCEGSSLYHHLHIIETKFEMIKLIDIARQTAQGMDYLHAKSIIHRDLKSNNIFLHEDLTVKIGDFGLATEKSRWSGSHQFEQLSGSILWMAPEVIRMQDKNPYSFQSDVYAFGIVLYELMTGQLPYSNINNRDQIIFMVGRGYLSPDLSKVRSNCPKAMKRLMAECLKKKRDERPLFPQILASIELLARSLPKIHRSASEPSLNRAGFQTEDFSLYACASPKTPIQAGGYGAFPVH

## C#Cc1cc(Nc2nccc(Oc3ccc(NC(=O)Nc4cc(C(C)(C)C)cc(NS(C)(=O)=O)c4OC)c4ccccc34)n2)cc(C(=O)NCCOCCOCCOC)c1 [Compound I, 3-((4-((4-(3-(5-(tert-Butyl)-2-methoxy-3-(methylsulfonamido)phenyl)ureido)naphthalen-1-yl)oxy)pyrimidin-2-yl)amino)-5-ethynyl-N-(2-(2-(2-methoxyethoxy)ethoxy)ethyl)benzamide]
B-Raf (V600E)
  effect on binding of B-Raf (V600E) to its standard ligand: did not have any significant effect
[1]; 1 h
  concentration at 1 h: 0 ng/g
[1]; 2 h
  concentration at 2 h: 10.4 ng/g
[1]; 4 h
  concentration at 4 h: 420 ng/g
[1]; 6 h
  concentration at 6 h: 3080 ng/g
[1]; 8 h
  concentration at 8 h: 1950 ng/g
[1]; 12 h
  concentration at 12 h: 126 ng/g
[1]; 24 h
  concentration at 24 h: 23 ng/g
[2]
  half-life: 34 min
[2]; read-out: Mean intrinsic clearance
  hepatocyte CLint: 41 µL/min/1e6 cells
Human hepatocytes
  Mean hepatic extraction ratio: 0.85
